Laboratory results from PMC2797226 (The Journal of Biological Chemistry, 2009).

Assays:
Kar2p = Kar2p (Saccharomyces cerevisiae, UniProt P16474); assay: proteinase K protection, SDS-PAGE; type: binding; settings: 2 mM ADP; 5 mM MgCl2; pH 7.4; room temperature
Lhs1p = target: T1, Lhs1p (Saccharomyces cerevisiae, UniProt P36016); assay: biochemical
T1 sequence (P36016 21-881): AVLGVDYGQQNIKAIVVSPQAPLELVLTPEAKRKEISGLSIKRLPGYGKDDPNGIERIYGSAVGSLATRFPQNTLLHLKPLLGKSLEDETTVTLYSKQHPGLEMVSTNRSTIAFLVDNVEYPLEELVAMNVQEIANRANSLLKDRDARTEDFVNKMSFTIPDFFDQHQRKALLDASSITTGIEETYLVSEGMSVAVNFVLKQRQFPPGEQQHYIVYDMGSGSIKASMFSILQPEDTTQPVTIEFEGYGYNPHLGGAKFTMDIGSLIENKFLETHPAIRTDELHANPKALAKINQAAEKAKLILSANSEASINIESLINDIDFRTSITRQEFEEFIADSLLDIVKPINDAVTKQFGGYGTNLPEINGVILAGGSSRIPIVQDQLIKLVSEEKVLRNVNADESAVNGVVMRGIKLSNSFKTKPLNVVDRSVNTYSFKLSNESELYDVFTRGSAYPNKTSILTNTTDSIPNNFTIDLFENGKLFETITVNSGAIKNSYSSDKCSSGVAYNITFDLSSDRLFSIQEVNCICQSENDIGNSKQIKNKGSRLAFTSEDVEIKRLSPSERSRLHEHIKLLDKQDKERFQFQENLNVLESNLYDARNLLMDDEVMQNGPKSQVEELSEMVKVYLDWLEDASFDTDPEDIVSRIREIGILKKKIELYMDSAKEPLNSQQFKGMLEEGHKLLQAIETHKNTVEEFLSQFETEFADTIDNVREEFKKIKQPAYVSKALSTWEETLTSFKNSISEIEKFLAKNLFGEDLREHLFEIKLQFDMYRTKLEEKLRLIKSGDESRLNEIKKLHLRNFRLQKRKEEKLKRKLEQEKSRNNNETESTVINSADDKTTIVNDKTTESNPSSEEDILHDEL

Kar2p, sequence (P16474 43-682): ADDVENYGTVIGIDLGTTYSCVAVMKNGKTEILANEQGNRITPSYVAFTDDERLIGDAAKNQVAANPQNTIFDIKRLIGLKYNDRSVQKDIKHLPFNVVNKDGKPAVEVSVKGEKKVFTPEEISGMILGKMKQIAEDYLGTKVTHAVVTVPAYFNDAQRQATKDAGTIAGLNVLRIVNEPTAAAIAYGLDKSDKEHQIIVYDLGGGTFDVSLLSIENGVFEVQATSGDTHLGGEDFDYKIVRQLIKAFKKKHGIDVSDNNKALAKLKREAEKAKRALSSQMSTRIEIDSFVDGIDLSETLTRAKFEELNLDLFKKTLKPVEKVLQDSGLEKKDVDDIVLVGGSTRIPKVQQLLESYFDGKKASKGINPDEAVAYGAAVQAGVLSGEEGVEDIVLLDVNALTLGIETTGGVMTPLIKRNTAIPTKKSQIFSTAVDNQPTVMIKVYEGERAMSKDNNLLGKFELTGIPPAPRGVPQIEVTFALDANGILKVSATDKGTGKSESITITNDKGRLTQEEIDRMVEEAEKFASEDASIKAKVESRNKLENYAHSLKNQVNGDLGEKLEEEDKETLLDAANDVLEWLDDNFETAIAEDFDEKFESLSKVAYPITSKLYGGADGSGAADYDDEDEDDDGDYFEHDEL

Compound	proteinase K protection, SDS-PAGE (Kar2p)	Kd (Lhs1p)
Nc1ncnc2c1ncn2[C@@H]1O[C@H](COP(=O)(O)OP(=O)(O)O)[C@@H](O)[C@H]1O [ADP]	ADP binding protects a ∼44-kDa NBD fragment	–
Nc1ncnc2c1ncn2[C@@H]1O[C@H](COP(=O)(O)OP(=O)(O)OP(=O)(O)O)[C@@H](O)[C@H]1O [ATP]	–	13.6 ± 0.5 µM
